Reference: ChEMBL document CHEMBL4507277

Assays:
[1] = molecular target: Muscarinic acetylcholine receptor M4 (Homo sapiens) (UniProt P08173); conditions: Compound concentration 10.0 uM
[2] = molecular target: Bone morphogenetic protein receptor type-1B (Homo sapiens) (UniProt O00238); conditions: Compound concentration 1000.0 nM
[3] = molecular target: Serine/threonine-protein kinase BRSK1 (Homo sapiens) (UniProt Q8TDC3); conditions: Compound concentration 1000.0 nM
[4] = molecular target: Serine/threonine-protein kinase PLK4 (Homo sapiens) (UniProt O00444); conditions: Compound concentration 1000.0 nM
[5] = molecular target: Activin receptor type-2A (Homo sapiens) (UniProt P27037); conditions: Compound concentration 1000.0 nM
[6] = molecular target: Cyclin-dependent kinase 8 (Homo sapiens) (UniProt P49336); conditions: Compound concentration 1000.0 nM
[7] = molecular target: Phosphatidylinositol 3-kinase C2 domain-containing subunit gamma (Homo sapiens) (UniProt O75747); conditions: Compound concentration 1000.0 nM
Phosphatidylinositol 3-kinase C2 domain-containing subunit gamma (Homo sapiens), sequence (O75747 whole entry, the tested form may be a part): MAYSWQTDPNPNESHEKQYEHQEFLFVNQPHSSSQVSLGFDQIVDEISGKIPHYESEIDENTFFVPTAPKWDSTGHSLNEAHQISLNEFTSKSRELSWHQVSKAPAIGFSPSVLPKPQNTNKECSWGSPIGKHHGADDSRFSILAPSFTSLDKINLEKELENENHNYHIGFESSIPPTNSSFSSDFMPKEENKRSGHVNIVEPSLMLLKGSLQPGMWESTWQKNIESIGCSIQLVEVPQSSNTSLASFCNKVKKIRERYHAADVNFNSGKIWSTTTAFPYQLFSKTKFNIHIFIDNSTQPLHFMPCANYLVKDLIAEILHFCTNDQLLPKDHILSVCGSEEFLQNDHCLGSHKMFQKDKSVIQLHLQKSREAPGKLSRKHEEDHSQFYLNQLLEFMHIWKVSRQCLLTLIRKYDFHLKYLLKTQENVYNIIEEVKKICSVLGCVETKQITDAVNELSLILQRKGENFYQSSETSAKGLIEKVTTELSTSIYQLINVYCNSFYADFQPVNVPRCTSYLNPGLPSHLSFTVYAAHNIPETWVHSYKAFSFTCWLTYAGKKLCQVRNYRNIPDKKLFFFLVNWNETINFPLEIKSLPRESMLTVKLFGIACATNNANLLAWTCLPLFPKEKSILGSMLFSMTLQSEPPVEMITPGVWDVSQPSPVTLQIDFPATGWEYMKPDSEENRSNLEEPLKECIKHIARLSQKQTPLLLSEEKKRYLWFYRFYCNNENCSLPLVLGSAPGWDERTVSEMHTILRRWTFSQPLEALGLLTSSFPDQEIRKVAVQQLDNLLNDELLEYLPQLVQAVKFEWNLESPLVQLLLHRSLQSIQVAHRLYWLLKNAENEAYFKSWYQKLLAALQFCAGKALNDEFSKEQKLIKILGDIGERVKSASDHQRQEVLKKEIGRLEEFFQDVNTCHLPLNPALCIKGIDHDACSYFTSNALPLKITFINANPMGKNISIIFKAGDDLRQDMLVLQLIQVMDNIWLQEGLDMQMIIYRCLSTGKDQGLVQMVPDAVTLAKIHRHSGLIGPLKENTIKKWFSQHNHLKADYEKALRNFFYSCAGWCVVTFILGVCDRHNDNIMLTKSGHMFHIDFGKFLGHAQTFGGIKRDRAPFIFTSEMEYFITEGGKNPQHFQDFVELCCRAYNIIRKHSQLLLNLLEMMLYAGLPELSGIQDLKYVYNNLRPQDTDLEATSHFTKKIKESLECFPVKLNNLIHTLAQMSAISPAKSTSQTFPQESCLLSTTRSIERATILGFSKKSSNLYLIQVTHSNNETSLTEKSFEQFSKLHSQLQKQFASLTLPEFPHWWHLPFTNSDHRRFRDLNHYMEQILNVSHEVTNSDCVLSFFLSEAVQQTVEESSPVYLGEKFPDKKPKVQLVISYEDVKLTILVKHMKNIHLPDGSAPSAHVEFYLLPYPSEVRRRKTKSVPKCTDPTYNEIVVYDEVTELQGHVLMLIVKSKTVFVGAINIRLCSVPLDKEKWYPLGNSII

[8] = molecular target: Serine/threonine-protein kinase RIO1 (Homo sapiens) (UniProt Q9BRS2); conditions: Compound concentration 1000.0 nM
Serine/threonine-protein kinase RIO1 (Homo sapiens), sequence (Q9BRS2 whole entry): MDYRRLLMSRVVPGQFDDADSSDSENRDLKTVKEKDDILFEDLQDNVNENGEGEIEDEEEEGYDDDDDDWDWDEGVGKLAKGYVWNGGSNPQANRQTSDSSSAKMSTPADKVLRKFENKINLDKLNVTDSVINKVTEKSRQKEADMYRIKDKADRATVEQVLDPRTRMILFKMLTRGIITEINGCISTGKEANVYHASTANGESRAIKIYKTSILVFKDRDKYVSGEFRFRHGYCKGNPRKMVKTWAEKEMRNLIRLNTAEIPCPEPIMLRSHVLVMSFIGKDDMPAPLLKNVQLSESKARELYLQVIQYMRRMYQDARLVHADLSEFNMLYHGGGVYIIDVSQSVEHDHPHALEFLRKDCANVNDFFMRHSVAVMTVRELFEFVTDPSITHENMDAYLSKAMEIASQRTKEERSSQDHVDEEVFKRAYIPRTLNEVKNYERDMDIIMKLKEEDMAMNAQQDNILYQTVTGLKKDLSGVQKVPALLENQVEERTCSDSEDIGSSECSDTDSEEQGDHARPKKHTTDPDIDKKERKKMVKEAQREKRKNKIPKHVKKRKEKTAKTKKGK

[9] = molecular target: Tyrosine-protein kinase ITK/TSK (Homo sapiens) (UniProt Q08881); conditions: Compound concentration 1000.0 nM
[10] = molecular target: Tyrosine-protein kinase Yes (Homo sapiens) (UniProt P07947); conditions: Compound concentration 1000.0 nM
Tyrosine-protein kinase Yes (Homo sapiens), sequence (P07947 2-543 limits assumed): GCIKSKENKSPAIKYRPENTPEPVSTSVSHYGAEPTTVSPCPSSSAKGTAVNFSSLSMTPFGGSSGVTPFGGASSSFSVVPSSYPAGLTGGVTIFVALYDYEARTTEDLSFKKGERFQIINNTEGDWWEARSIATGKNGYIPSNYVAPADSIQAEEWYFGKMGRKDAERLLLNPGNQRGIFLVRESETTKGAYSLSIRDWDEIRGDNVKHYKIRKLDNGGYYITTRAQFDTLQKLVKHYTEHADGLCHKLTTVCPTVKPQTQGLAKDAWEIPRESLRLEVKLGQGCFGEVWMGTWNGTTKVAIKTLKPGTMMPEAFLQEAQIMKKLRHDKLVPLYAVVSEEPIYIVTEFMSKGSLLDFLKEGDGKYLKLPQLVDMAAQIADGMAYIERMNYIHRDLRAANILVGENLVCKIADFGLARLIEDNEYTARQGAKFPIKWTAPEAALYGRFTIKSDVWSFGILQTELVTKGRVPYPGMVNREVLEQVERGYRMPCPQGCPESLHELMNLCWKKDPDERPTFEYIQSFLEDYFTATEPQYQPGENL

[11] = tested on: Receptor-type tyrosine-protein kinase FLT3 (Homo sapiens), P36888 [UNDEFINED MUTATION]; conditions: Compound concentration 1000.0 nM
[12] = molecular target: Non-receptor tyrosine-protein kinase TNK1 (Homo sapiens) (UniProt Q13470); conditions: Compound concentration 1000.0 nM
[13] = molecular target: T1, D(4) dopamine receptor (Homo sapiens) (UniProt P21917); conditions: Compound concentration 10.0 uM
T1 sequence (whole entry): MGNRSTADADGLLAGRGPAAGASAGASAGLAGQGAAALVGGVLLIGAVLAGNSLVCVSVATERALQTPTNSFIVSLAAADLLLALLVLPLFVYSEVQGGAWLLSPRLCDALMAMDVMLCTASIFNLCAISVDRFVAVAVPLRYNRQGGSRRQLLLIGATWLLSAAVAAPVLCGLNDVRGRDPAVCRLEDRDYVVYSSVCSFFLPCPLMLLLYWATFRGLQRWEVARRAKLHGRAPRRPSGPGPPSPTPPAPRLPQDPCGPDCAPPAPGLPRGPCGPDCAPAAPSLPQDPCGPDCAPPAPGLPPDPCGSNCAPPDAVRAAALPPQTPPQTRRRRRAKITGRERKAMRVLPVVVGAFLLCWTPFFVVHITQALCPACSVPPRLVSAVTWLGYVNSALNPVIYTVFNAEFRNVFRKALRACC

[14] = molecular target: Inhibitor of nuclear factor kappa-B kinase subunit alpha (Homo sapiens) (UniProt O15111); conditions: Compound concentration 1000.0 nM
[15] = molecular target: Serine/threonine-protein kinase 26 (Homo sapiens) (UniProt Q9P289); conditions: Compound concentration 1000.0 nM
[16] = molecular target: Aurora kinase B (Homo sapiens) (UniProt Q96GD4); conditions: Compound concentration 1000.0 nM
[17] = molecular target: Tyrosine-protein kinase Lyn (Homo sapiens) (UniProt P07948); conditions: Compound concentration 1000.0 nM
Tyrosine-protein kinase Lyn (Homo sapiens), sequence (P07948 2-512 limits assumed): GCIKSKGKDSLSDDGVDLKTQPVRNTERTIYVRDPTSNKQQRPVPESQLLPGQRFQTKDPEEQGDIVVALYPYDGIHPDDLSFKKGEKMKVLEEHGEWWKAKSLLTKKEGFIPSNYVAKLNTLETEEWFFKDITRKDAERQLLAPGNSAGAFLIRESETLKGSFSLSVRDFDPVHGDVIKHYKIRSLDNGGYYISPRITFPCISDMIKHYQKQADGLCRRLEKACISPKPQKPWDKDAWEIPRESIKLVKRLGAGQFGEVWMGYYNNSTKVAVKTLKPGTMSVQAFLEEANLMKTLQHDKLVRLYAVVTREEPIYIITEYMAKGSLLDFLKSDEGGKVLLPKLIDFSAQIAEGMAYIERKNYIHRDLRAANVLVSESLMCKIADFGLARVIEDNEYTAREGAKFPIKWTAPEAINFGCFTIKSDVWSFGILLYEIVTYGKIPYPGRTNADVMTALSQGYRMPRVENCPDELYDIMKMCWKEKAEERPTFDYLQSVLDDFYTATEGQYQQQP

[18] = molecular target: Serine/threonine-protein kinase D3 (Homo sapiens) (UniProt O94806); conditions: Compound concentration 1000.0 nM
[19] = molecular target: D(3) dopamine receptor (Homo sapiens) (UniProt P35462); conditions: Compound concentration 10.0 uM
[20] = molecular target: Tyrosine-protein kinase receptor TYRO3 (Homo sapiens) (UniProt Q06418); conditions: Compound concentration 1000.0 nM
Tyrosine-protein kinase receptor TYRO3 (Homo sapiens), sequence (Q06418 whole entry): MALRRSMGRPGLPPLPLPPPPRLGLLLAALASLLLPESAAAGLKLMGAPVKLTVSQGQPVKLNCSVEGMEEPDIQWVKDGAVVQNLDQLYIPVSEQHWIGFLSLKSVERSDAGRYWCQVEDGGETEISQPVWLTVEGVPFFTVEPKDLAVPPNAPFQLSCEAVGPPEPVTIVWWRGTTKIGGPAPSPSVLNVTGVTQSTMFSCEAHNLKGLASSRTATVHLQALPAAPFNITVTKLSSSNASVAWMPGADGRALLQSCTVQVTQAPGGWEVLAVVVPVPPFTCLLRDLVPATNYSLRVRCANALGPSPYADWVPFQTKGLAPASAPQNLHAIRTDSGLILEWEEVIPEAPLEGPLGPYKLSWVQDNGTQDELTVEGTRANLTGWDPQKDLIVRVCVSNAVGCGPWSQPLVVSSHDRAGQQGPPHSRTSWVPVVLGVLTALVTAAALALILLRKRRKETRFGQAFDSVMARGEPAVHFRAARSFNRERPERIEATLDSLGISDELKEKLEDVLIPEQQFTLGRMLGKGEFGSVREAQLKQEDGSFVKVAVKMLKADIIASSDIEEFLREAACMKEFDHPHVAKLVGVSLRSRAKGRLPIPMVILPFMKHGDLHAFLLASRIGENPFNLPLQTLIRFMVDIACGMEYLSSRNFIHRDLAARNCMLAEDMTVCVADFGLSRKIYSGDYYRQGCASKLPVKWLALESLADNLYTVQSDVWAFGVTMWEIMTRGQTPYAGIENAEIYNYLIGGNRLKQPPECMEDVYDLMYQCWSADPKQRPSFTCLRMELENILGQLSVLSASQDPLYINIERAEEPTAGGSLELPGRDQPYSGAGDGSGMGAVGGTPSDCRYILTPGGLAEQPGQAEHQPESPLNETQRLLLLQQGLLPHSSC

[21] = molecular target: Mitogen-activated protein kinase 10 (Homo sapiens) (UniProt P53779); conditions: Compound concentration 1000.0 nM
[22] = molecular target: Ribosomal protein S6 kinase alpha-5 (Homo sapiens) (UniProt O75582); conditions: Compound concentration 1000.0 nM
[23] = molecular target: Tyrosine-protein kinase ABL1 (Homo sapiens) (UniProt P00519); conditions: Compound concentration 1000.0 nM
[24] = molecular target: TGF-beta receptor type-2 (Homo sapiens) (UniProt P37173); conditions: Compound concentration 1000.0 nM
TGF-beta receptor type-2 (Homo sapiens), sequence (P37173 whole entry, canonical isoform): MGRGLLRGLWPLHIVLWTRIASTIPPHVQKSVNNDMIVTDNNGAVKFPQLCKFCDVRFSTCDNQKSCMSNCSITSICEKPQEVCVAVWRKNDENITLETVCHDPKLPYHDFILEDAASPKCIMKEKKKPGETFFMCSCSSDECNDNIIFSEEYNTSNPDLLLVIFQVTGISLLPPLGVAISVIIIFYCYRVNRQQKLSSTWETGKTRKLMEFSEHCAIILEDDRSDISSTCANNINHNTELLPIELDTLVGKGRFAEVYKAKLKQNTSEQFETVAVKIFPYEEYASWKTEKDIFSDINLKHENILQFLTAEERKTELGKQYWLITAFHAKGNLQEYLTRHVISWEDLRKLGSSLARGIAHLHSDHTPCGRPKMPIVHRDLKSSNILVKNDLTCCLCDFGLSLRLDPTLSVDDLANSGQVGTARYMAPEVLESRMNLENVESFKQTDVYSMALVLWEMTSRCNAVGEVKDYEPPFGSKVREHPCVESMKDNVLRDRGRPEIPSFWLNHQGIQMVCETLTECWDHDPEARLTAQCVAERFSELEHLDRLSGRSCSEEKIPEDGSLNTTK

[25] = molecular target: Casein kinase I isoform gamma-1 (Homo sapiens) (UniProt Q9HCP0); conditions: Compound concentration 1000.0 nM
[26] = molecular target: Dual specificity tyrosine-phosphorylation-regulated kinase 1B (Homo sapiens) (UniProt Q9Y463); conditions: Compound concentration 1000.0 nM
[27] = molecular target: Serine/threonine-protein kinase pim-3 (Homo sapiens) (UniProt Q86V86); conditions: Compound concentration 1000.0 nM
[28] = molecular target: Homeodomain-interacting protein kinase 3 (Homo sapiens) (UniProt Q9H422); conditions: Compound concentration 1000.0 nM
[29] = molecular target: Myotonin-protein kinase (Homo sapiens) (UniProt Q09013); conditions: Compound concentration 1000.0 nM
[30] = molecular target: Casein kinase I isoform alpha-like (Homo sapiens) (UniProt Q8N752); conditions: Compound concentration 1000.0 nM
[31] = tested on: Receptor-type tyrosine-protein kinase FLT3 (Homo sapiens), P36888 [R834Q]; conditions: Compound concentration 1000.0 nM
[32] = molecular target: Serine/threonine-protein kinase Chk2 (Homo sapiens) (UniProt O96017); conditions: Compound concentration 1000.0 nM
[33] = tested on: eIF-2-alpha kinase GCN2 (Homo sapiens), Q9P2K8 [S808G]; conditions: Compound concentration 1000.0 nM
[34] = molecular target: Serine/threonine-protein kinase PRP4 homolog (Homo sapiens) (UniProt Q13523); conditions: Compound concentration 1000.0 nM
[35] = molecular target: Mast/stem cell growth factor receptor Kit (Homo sapiens) (UniProt P10721); conditions: Compound concentration 1000.0 nM
[36] = molecular target: Serine/threonine-protein kinase TAO1 (Homo sapiens) (UniProt Q7L7X3); conditions: Compound concentration 1000.0 nM
[37] = molecular target: Dual specificity testis-specific protein kinase 1 (Homo sapiens) (UniProt Q15569); conditions: Compound concentration 1000.0 nM
[38] = molecular target: Ephrin type-A receptor 4 (Homo sapiens) (UniProt P54764); conditions: Compound concentration 1000.0 nM
[39] = molecular target: Serine/threonine-protein kinase 24 (Homo sapiens) (UniProt Q9Y6E0); conditions: Compound concentration 1000.0 nM
[40] = molecular target: Dual specificity protein kinase TTK (Homo sapiens) (UniProt P33981); conditions: Compound concentration 1000.0 nM

Compound	inhibition [1]	residual activity [2]	residual activity [3]	residual activity [4]	residual activity [5]	residual activity [6]	residual activity [7]	residual activity [8]	residual activity [9]	residual activity [10]	residual activity [11]	residual activity [12]	inhibition [13]	residual activity [14]	residual activity [15]	residual activity [16]	residual activity [17]	residual activity [18]	inhibition [19]	residual activity [20]	further results
CCS(=O)(=O)c1cc2cc(C[C@](O)(CC(C)(C)c3ccc(F)cc3C(N)=O)C(F)(F)F)[nH]c2cn1	13.1%	100%	99%	80%	100%	100%	100%	80%	100%	100%	91%	98%	-7.41%	100%	94%	92%	100%	99%	7.81%	81%	residual activity [21]: 100%; residual activity [22]: 94%; residual activity [23]: 100%; residual activity [24]: 100%; residual activity [25]: 96%; residual activity [26]: 88%; residual activity [27]: 100%; residual activity [28]: 100%; residual activity [29]: 99%; residual activity [30]: 100%; residual activity [31]: 100%; residual activity [32]: 92%; residual activity [33]: 89%; residual activity [34]: 98%; residual activity [35]: 95%; residual activity [36]: 88%; residual activity [37]: 100%; residual activity [38]: 100%; residual activity [39]: 86%; residual activity [40]: 99%
CCS(=O)(=O)c1cc2cc(C[C@@](O)(CC(C)(C)c3ccc(F)cc3C(N)=O)C(F)(F)F)[nH]c2cn1	18.2%	55%	73%	87%	94%	100%	100%	50%	96%	100%	78%	100%	5.32%	95%	91%	71%	100%	100%	1.8%	92%	residual activity [21]: 100%; residual activity [22]: 100%; residual activity [23]: 99%; residual activity [24]: 100%; residual activity [25]: 100%; residual activity [26]: 100%; residual activity [27]: 100%; residual activity [28]: 65%; residual activity [29]: 85%; residual activity [30]: 99%; residual activity [31]: 78%; residual activity [32]: 84%; residual activity [33]: 94%; residual activity [34]: 80%; residual activity [35]: 100%; residual activity [36]: 73%; residual activity [37]: 77%; residual activity [38]: 95%; residual activity [39]: 0%; residual activity [40]: 78%
